Measurements published in article PMC6753678, “Fueling Open Innovation for Malaria Transmission-Blocking Drugs: Hundreds of Molecules Targeting Early Parasite Mosquito Stages” (Frontiers in Microbiology, 2019).
pIC50: −log10 of the molar value. Where two headings read alike, the source gives them in different places.

Key:
[1] = tested on: 3D7-strain P. falciparum asexual parasites; test: P. falciparum asexual growth inhibition assay (Pf GIA); type: cell-based, Plasmodium falciparum; settings: dose response confirmation; read-out: Pf asexual growth inhibition assays IC50
Procedure, shortened: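 3D7 parasites at 0.25% parasitemia, 2% hematocrit were exposed to compounds in dose response for 72 h at 37°C under 5% CO2, 5% O2. Viability read as parasite LDH activity (nitro blue tetrazolium, A650) after freeze-thaw; inhibition scaled to chloroquine (50 μM) and DMSO controls, mean of three biological replicates.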

HepG2 cells = test: HepG2 cytotoxicity assay; settings: for Pb ODA (this manuscript) HepG2 cytoxicity: HepG2 cytotoxicity listed with the Pb ODA data set (this manuscript); for pIC50: read-out: HepG2 cytotoxicity assay IC50, dose response confirmation
Procedure, shortened: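 Cells are plated at 2,500 per well on compound-treated plates in MEM containing 10% fetal bovine serum and 1% NEAA, then incubated 48 h at 37°C.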

[2] = tested on: P. berghei ookinete development; settings: for % inhibition, Replicate A / % inhibition, Replicate B: primary screen at 1 μM
[3] = read-out: Pb ODA (this manuscript) IC50, P. berghei ookinete development assay, this manuscript
[4] = read-out: Pb Ookinete development assay IC50, dose response confirmation
[5] = unified HepG2 value across the three screens
[6] = read-out: Pb ODA IC50, this manuscript
[7] = HepG2 values of the three screens unified

Structure (SMILES)	pIC50 [1]	Pb ODA (this manuscript) HepG2 cytoxicity (HepG2 cells) [µM]	pIC50 (HepG2 cells)	Is compound selective in assay? Pb ODA active? [2]	% inhibition, Replicate A [2] [%]	% inhibition, Replicate B [2] [%]	pIC50 [2, 3]	pIC50 [2, 4]	Unified cytotox (HepG2 cells; [5]) [µM]	Is compound selective in assay? Pb ODA active? ([2]; 1: YES, 0: NO)	pIC50 [2, 6]	HepG2 cytoxicity (Pb ODA, this manuscript) (HepG2 cells) [µM]	Unified cytotox (HepG2 cells; [7]) [µM]	Unified cytotox (HepG2 cells) [µM]
COc1ccc(Cc2c(N)nc3nc(N)nc(N)c3c2C)cc1.Cl [TCMDC-138061]	6.85	0.055	7.26	0 (key: 1: YES; 0: NO)	-0.33	51.34	5.29	5.29	–	–	–	–	–	–
COc1ccc(-c2nc3c(N)nc(N)nc3nc2-c2ccccc2Cl)cc1.COc1ccc(-c2nc3nc(N)nc(N)c3nc2-c2ccccc2Cl)cc1.Cl [TCMDC-138100]	5.81	–	4.14	–	50.02	33.60	–	5.08	73.28	0 (0: NO)	5.08	–	–	–
CC(O)C(C)(CO)NCc1ccc2c3c(cccc13)-c1ccccc1-2.Cl (stereo not shown) [TCMDC-138117]	6.31	–	5.35	–	18.85	67.10	–	6.22	4.47	0 (0: NO)	6.21	–	–	–
COc1ccc2c(=O)c(I)c(C)[nH]c2c1 [TCMDC-138141]	> 9.52	0.0017	8.77	0 (key: 1: YES; 0: NO)	99.28	96.77	–	6.85	–	–	–	–	–	–
Cc1ccc2c(=O)c3cc(C)ccc3[nH]c2c1 [TCMDC-138194]	6.75	–	4.19	–	98.56	107.67	–	6.66	63.83	1 (1: YES)	6.66	–	–	–
COc1ccc(Cn2c(Nc3cccc(C(F)(F)F)c3)nc3cc(C(=O)NC(C)C)cnc32)cc1Cl [TCMDC-138556]	5.85	–	4.29	–	25.40	50.20	–	5.26	51.29	0 (0: NO)	5.26	–	–	–
Nc1nc(N)c2c(ccc3c2ccn3CCCC(F)(F)F)n1 [TCMDC-138622]	6.98	–	6.43	–	33.98	53.93	–	5.22	–	0 (0: NO)	5.22	0.37	0.37	–
Nc1nc(N)c2c(ccc3c2ccn3CCCF)n1 [TCMDC-138623]	6.91	–	5.96	–	92.24	33.21	–	5.72	–	0 (0: NO)	5.72	1.10	1.10	–
CN1CCN(c2ccc(Nc3nccc(-c4cnn5ncccc45)n3)cc2Cl)CC1 [TCMDC-138688]	6.03	–	4.33	–	69.14	64.46	–	5.74	46.77	1 (1: YES)	5.74	–	–	–
CC(=O)c1ccc(NC(=O)Nc2ccc(N(C)c3ccnc(Nc4cccc(CS(C)(=O)=O)c4)n3)cc2)cc1 [TCMDC-138736]	6.22	–	5.68	–	94.55	90.04	–	6.69	2.11	1 (1: YES)	6.70	–	–	–
Cc1[nH]c(C)c(-c2ccc(Oc3ccc(OC(F)(F)F)cc3)cc2)c(=O)c1Br [TCMDC-138826]	6.56	75.86	4.12	0 (key: 1: YES; 0: NO)	67.69	78.09	5.10	5.10	–	–	–	–	–	–
Cc1ccc(Nc2nc3cc(N(C)c4ccnc(Nc5cccc(CCS(C)(=O)=O)c5)n4)ccc3n2C)cc1.O=C(O)C(F)(F)F [TCMDC-138853]	9.36	–	5.48	–	113.72	29.45	–	5.73	3.31	0 (0: NO)	5.73	–	–	–
Cc1[nH]c(C)c(-c2ccc(OCc3ccccc3)cc2)c(=O)c1Br [TCMDC-138901]	6.97	100.00	4.00	1 (key: 1: YES; 0: NO)	91.81	92.28	6.66	6.65	–	–	–	–	–	–
OCCc1ccc(Nc2nccc(-c3nnc4ccccn34)n2)cc1 [TCMDC-138924]	> 9.70	–	4.00	–	70.77	81.57	–	6.40	100.00	1 (1: YES)	6.40	–	–	–
Cc1[nH]c(C)c(-c2ccc(OCc3ccc(F)cc3)cc2)c(=O)c1Br [TCMDC-138928]	6.97	100.00	4.00	1 (key: 1: YES; 0: NO)	93.24	106.54	6.22	6.23	–	–	–	–	–	–
CCCOc1cc(OCCC)cc(-c2cc(=O)c3ccccc3[nH]2)c1 [TCMDC-138943]	7.12	–	4.00	–	86.05	83.39	–	6.26	100.00	1 (1: YES)	6.26	–	–	–
COc1ccc2nc3cc(Cl)ccc3c(NCCN(C)C)c2c1 [TCMDC-139093]	7.32	15.85	4.80	0 (key: 1: YES; 0: NO)	73.14	67.89	–	5.66	–	–	–	–	–	–
CN1Cc2cc(NC(=O)/C=C/c3ccccc3Cl)ccc2C(C)(C)C1.Cl [TCMDC-139315]	6.17	–	4.69	–	114.62	130.13	–	6.25	20.42	1 (1: YES)	6.25	–	–	–
O=c1cc(NCCCN(Cc2ccccc2)Cc2ccccc2)[nH]c2ccccc12 [TCMDC-139368]	5.95	–	4.47	–	31.96	60.20	–	5.54	33.88	1 (1: YES)	5.54	–	–	–
CCOC(=O)[C@H](Cc1cc([N+](=O)[O-])c(Oc2ccc(OC)c(Cc3ccc(OC)c(C(C)C)c3)c2)c([N+](=O)[O-])c1)NC(=O)C(F)(F)F [TCMDC-139398]	5.02	–	4.00	–	63.87	33.42	–	5.31	100.00	1 (1: YES)	5.31	–	–	–
Cl.O=c1cc(NCCCNCc2sc(Br)c(Br)c2Br)[nH]c2ccccc12 [TCMDC-139647]	6.01	–	4.46	–	55.06	82.69	–	5.71	34.67	1 (1: YES)	5.71	–	–	–
Cl.Oc1cc(-c2nc(-c3ccccc3)[nH]c2-c2ccncc2)ccc1Cl [TCMDC-139660]	5.75	–	5.01	0 (key: 1: YES; 0: NO)	79.35	69.44	–	5.76	–	–	5.75	–	–	9.77
CC(C)Nc1nc(NC2CCCCC2)nc(N2CCCCCCC2)n1 [TCMDC-139688]	5.65	–	4.48	–	67.11	52.41	–	5.49	33.11	1 (1: YES)	–	–	–	–
COc1cc(NC(=O)Nc2ccc(Br)cc2C(=O)Nc2ccc(Br)cc2)cc(OC)c1OC [TCMDC-139733]	5.68	–	4.00	–	44.63	66.05	–	5.20	100.00	1 (1: YES)	5.20	–	–	–
C=C[C@H]1CN(CCCCCCC)CC[C@H]1CC(=O)Nc1cnnc2ccc(OC)cc12.O=C(O)C(=O)O [TCMDC-139791]	6.56	–	4.47	–	17.33	54.49	–	5.56	33.88	1 (1: YES)	5.56	–	–	–
